± gives the expanded uncertainty stated by the source.

The conditions of series [1]: Crystal; DSC.
Series [2] is described as follows: Molar enthalpy of transition or fusion. Conditions: Crystal; DSC.

Consider `c1ccc2cc3cc4ccccc4cc3cc2c1` [2,3-benzanthracene], for which the Triple point temperature in series [1] stood at 623.75 ± 1.2 K. Moreover, the “Molar enthalpy of transition or fusion” value in series [2] was found to be 8.94 ± 0.908 kcal/mol.

For `c1ccc(N(c2ccc(-c3ccc(N(c4ccccc4)c4cccc5ccccc45)cc3)cc2)c2cccc3ccccc23)cc1` [N,N'-di(1-naphthyl)-N,N'-diphenyl benzidine], the Triple point temperature in series [1] was 551.75 ± 1.2 K. For the same molecule, the “Molar enthalpy of transition or fusion” value in series [2] turned out to be 14.1 ± 1.43 kcal/mol.
